{"source": "patent US20080269342A1", "about": "“Pleuromutilin Derivatives and Its Use” (priority 2005, published 2008)", "key": {"M. catarrhalis": {"tested_on": "M. catarrhalis", "assay": "in vitro antibacterial activity", "type": "cell-based", "details": "primary respiratory pathogen"}, "S. pyogenes": {"tested_on": "S. pyogenes", "assay": "in vitro antibacterial activity", "type": "cell-based"}, "S. pneumoniae": {"tested_on": "S. pneumoniae", "assay": "in vitro antibacterial activity", "type": "cell-based", "details": "primary respiratory pathogen"}, "H. influenzae": {"tested_on": "H. influenzae", "assay": "in vitro antibacterial activity", "type": "cell-based", "details": "primary respiratory pathogen"}, "M. pneumoniae": {"tested_on": "M. pneumoniae", "assay": "in vitro activity against atypical pathogens", "type": "cell-based", "details": "atypical pathogen"}, "L. pneumophila": {"tested_on": "L. pneumophila", "type": "cell-based", "details": "atypical pathogen"}, "[1]": {"tested_on": "representative Gram-positive and Gram-negative pathogens", "assay": "in vivo activity against representative pathogens", "details": "pathogens associated with respiratory tract and skin and skin structure infections, including isolates resistant to existing classes of antimicrobials"}, "F. tularensis": {"tested_on": "F. tularensis", "type": "cell-based", "details": "biothreat organism"}, "[2]": {"tested_on": "isolates carrying resistance determinants to other antibiotics", "assay": "in vitro activity against resistant isolates of respiratory pathogens", "type": "cell-based", "details": "penicillin-, macrolide-, methicillin- or levofloxacin-resistant phenotypes"}, "anaerobic organisms": {"tested_on": "anaerobic organisms", "assay": "in vitro activity against anaerobic organisms", "type": "cell-based"}, "C. pneumoniae": {"tested_on": "C. pneumoniae", "assay": "in vitro activity against atypical pathogens", "type": "cell-based", "details": "atypical pathogen"}, "N. gonorrhoeae": {"tested_on": "N. gonorrhoeae", "assay": "in vitro activity against Neisserria sp.", "type": "cell-based", "details": "both ciprofloxacin susceptible and resistant"}, "N. meningitidis": {"tested_on": "N. meningitidis", "assay": "in vitro activity against Neisserria sp.", "type": "cell-based"}, "[3]": {"tested_on": "representative Gram-positive and Gram-negative pathogens", "assay": "in vitro activity against representative pathogens", "type": "cell-based", "details": "pathogens associated with respiratory tract and skin and skin structure infections, including isolates resistant to existing classes of antimicrobials"}, "S. aureus": {"tested_on": "S. aureus", "assay": "in vitro antibacterial activity", "type": "cell-based"}, "[4]": {"details": "primary respiratory pathogen, primary pathogen of skin and skin structure infections"}}}
{"smiles": "C=C[C@]1(C)C[C@@H](OC(=O)NC(=O)O[C@H]2C[C@H](N)C2)[C@]2(C)[C@H](C)CC[C@]3(CCC(=O)[C@H]32)[C@@H](C)[C@@H]1O", "note": "[Compound I, trans-3-aminocyclobutyl (1S,2R,3S,4S,6R,7R,8R,14R)-4-ethenyl-3-hydroxy-2,4,7,14-tetramethyl-9-oxotricyclo[5.4.3.01,8]tetradec-6-yl imidodicarbonate]", "values": [{"measurement": "in vitro antibacterial activity", "setting": "M. catarrhalis", "result": "good in vitro antibacterial activity"}, {"measurement": "activity against isolates carrying resistance determinants to other antibiotics", "setting": "S. pyogenes; S. pyogenes isolates, penicillin-, macrolide-, methicillin- or levofloxacin-resistant phenotypes", "result": "retained"}, {"measurement": "in vitro antibacterial activity", "setting": "S. pyogenes; [4]", "result": "good in vitro antibacterial activity"}, {"measurement": "in vitro antibacterial activity", "setting": "S. pneumoniae", "result": "good in vitro antibacterial activity"}, {"measurement": "in vitro antibacterial activity", "setting": "H. influenzae", "result": "good in vitro antibacterial activity"}, {"measurement": "in vitro activity", "setting": "M. pneumoniae", "result": "good in vitro activity"}, {"measurement": "in vitro activity", "setting": "L. pneumophila", "result": "good in vitro activity"}, {"measurement": "in vivo activity", "setting": "[1]", "result": "good"}, {"measurement": "in vitro activity", "setting": "F. tularensis", "result": "good in vitro activity"}, {"measurement": "activity against isolates carrying resistance determinants to other antibiotics", "setting": "[2]", "result": "activity"}, {"measurement": "in vitro activity", "setting": "anaerobic organisms", "result": "good in vitro activity"}, {"measurement": "in vitro activity", "setting": "C. pneumoniae", "result": "good in vitro activity"}, {"measurement": "in vitro activity", "setting": "N. gonorrhoeae", "result": "good in vitro activity"}, {"measurement": "in vitro activity", "setting": "N. meningitidis", "result": "good in vitro activity"}, {"measurement": "in vitro activity", "setting": "[3]", "result": "good"}, {"measurement": "activity against isolates carrying resistance determinants to other antibiotics", "setting": "S. aureus; S. aureus isolates, penicillin-, macrolide-, methicillin- or levofloxacin-resistant phenotypes", "result": "retained"}, {"measurement": "in vitro antibacterial activity", "setting": "S. aureus; [4]", "result": "good in vitro antibacterial activity"}]}
